{"source": "patent US11590155B2", "about": "“Substituted nucleosides, nucleotides and analogs thereof” (priority 2014, dated 2023)"}
{"system": "Ebola", "test": "microbe, parasite or virus in culture", "format": "cell-based", "conditions": "Zaire ebolavirus, HeLa, read-out: EC50 against Ebola", "units": {"EC50": "nM"}}
{"smiles": "[N-]=[N+]=NC[C@]1(CO)O[C@@H](n2ccc(N)nc2=O)[C@H](F)[C@@H]1O", "note": "[Compound 106]", "EC50": "< 2000"}
{"smiles": "Nc1ccn([C@@H]2O[C@@](CO)(CCl)[C@@H](O)[C@H]2F)c(=O)n1", "note": "[compound 315]", "EC50": "< 25000"}
{"smiles": "[N-]=[N+]=N[C@]1(CO)O[C@@H](n2ccc(N)nc2=O)[C@H](F)[C@@H]1O", "note": "[compound 332]", "EC50": "< 2000"}
